Reference: patent US6429188B1, “Method for treating the endotoxic shock in mammals” (Universidad Complutense de Madrid, priority 1998, dated 2002)
pIC50: −log10 of the molar value.

What was measured:
mRNA of IL-6 = experiment: Northern blot for IL-6 mRNA in LPS-activated macrophages; type: cell-based, Mouse; details: macrophages activated with LPS and exposed to peptide
Procedure: (§1) Mouse macrophages were submitted to the experimental conditions of examples 1 and 3 and their mRNA isolated. This was then analysed using the Northern Blot technique to detect mRNA of TNFα and IL-6.

circulating TNFα = experiment: Levels of circulating TNFα in mice after injection of LPS; type: in vivo; details: 2 hours after 25 μgr LPS, simultaneous 5 nmol peptide
Procedure: In an experiment carried out with mice the levels of circulating TNFα 2 hours after injection of 25 μgr. of LPS approach 4 ngr./ml. Simultaneous administration of 5 nmol of VIP or PACAP reduced said levels by 60%.

circulating IL-6 = experiment: Levels of circulating IL-6 in mice after injection of LPS; type: in vivo; details: 2 hours after 25 μgr LPS, simultaneous 5 nmol peptide
Procedure: In an experiment carried out with mice the levels of circulating IL-6 2 hours after injection of 25 μgr. of LPS approach 1.5 ngr./ml Simultaneous administration of 5 nmol of VIP or PACAP reduced said levels by 60% and 75% respectively.

[1] = system: IL-6 production in peritoneal murin macrophages stimulated with LPS; experiment: Production of IL-6 by peritoneal murine macrophages stimulated with LPS; type: cell-based, mouse; details: for Degree of inhibition of IL-6 production when added after stimulation with LPS: peptide added at different times after LPS; for pIC50: peritoneal murin macrophages stimulated with LPS, read-out: IC50 for inhibition of IL-6 production; for Highest degree of inhibition of IL-6 production: peritoneal murin macrophages, LPS 10 ngr./ml
Procedure: FIG. 3 represents the production of IL-6 by murin macrophages in culture (5×10^5 cells/ml) stimulated with 10 ngr/ml of LPS in presence or absence of 10^−8 M of VIP or PACAP over a period of 24 hours.
FIG. 4 represents the production of IL-6 by murin macrophages in culture (5×10^5 cells/ml) after 6 hours of culture with 10 ngr/ml of LPS and to which 10^−8 M of VIP or PACAP is added at different times.
In experiments carried out in vitro VIP and PACAP inhibit the production of IL-6 in peritoneal murin macrophages stimulated with LPS. The highest degree of inhibition reaches levels near to 90% and occurs with doses of stimulation of 10 ngr./ml of LPS.

mRNA of TNFα = experiment: Northern blot for TNFα mRNA in LPS-activated macrophages; type: cell-based, Mouse; details: macrophages activated with LPS and exposed to peptide
Procedure: as §1

[2] = system: TNFα production in peritoneal murin macrophages stimulated with LPS; experiment: Production of TNFα by peritoneal murine macrophages stimulated with LPS; type: cell-based, mouse; details: for Inhibitory effect on TNFα production when added after 4 hours: peptide added 4 hours after LPS; for Inhibitory effect on TNFα production when added up until 1 hour after LPS stimulation: peptide added up until 1 hour after LPS, compared with simultaneous addition; for pIC50: peritoneal murin macrophages stimulated with LPS, read-out: IC50 for inhibition of TNFα production; for Highest degree of inhibition of TNFα production: peritoneal murin macrophages, LPS 1 to 10 ng/ml
Procedure: FIG. 1 represents the production of TNFα by murin macrophages in culture (5×10^5 […]) stimulated with 10 ngr/ml of LPS in presence or absence of 10^−8 M of VIP or PACAP over a period of 24 hours.
FIG. 2 represents the production of TNFα by murin macrophages in culture (5×10^5 cells/ml) after 6 hours of culture with 10 ngr/ml of LPS and to which 10^−8 M of VIP or PACAP is added at different times.
In experiments carried out in vitro VIP and PACAP inhibit the production of TNFα in peritoneal murin macrophages stimulated with LPS. The highest degree of inhibition reaches levels near to 60% and occurs with doses of stimulation between 1 and 10 ng/ml of LPS. The IC50 is around 80 pM, both for VIP and for PACAP and the effect was observed until the end of the experiment (see FIG. 1). The inhibitory effect is the same if both neuropeptides are added up until 1 hour after stimulating the macrophages with LPS, although it reduces progressively until disappearing if added after 4 hours (see FIG. 2).

[3] = system: lethal effects of LPS in mice; experiment: Survival of mice injected with a lethal dose of LPS; type: in vivo; details: 400 μgr LPS; for Survival rate, administration up to 1 hour after LPS: peptide up to 1 hour after LPS; for Survival rate at the end of the experiment: simultaneous 5 nmol peptide, 4-day period
Procedure: FIG. 6 represents the survival of mice injected with 400 μgr. of LPS and, either simultaneously or after 30 minutes, 1 or 4 hours, with 5 nmol. of VIP or PACAP. A. Control; B: VIP a 0 h.; C: VIP a 0.5 h; D: VIP a 1 h.; E: VIP a 4 h.;
An experiment was carried out in which the survival over a 4-day period was studied of mice that had been injected with 400 μgr. of LPS. The mortality in these circumstances was 100% after 36 hours. With simultaneous administration of 5 nmol. of VIP or PACAP a survival rate of 60% was attained at the end of the experiment. Administration of neuropeptides up to 1 hour after injection with LPS still gave survival rates near to 50%.

Substance | Transcripts for IL-6 (Northern blot) (mRNA of IL-6) | Reduction of circulating TNFα levels (circulating TNFα) | Reduction of circulating IL-6 levels (circulating IL-6) | Degree of inhibition of IL-6 production when added after stimulation with LPS [1] | pIC50 [1] | Highest degree of inhibition of IL-6 production [1] | Transcripts for TNFα (Northern blot) (mRNA of TNFα) | Inhibitory effect on TNFα production when added after 4 hours [2] | Inhibitory effect on TNFα production when added up until 1 hour after LPS stimulation [2] | pIC50 [2] | Highest degree of inhibition of TNFα production [2] | Survival rate, administration up to 1 hour after LPS [3] | Survival rate at the end of the experiment [3]
PACAP [two molecular forms PACAP-38 and PACAP-27] | absence of transcripts | 60% | 75% | progressively less | 11.07 | ~90% | absence of transcripts | disappearing | the same | ~10.10 | ~60% | ~50% | 60%
HSDAVFTDNYTRLRKMAVKKYLNSILN [VIP] | absence of transcripts | 60% | 60% | progressively less | 11.07 | ~90% | absence of transcripts | disappearing | the same | ~10.10 | ~60% | ~50% | 60%
